Results as given in patent publication US20250197351A1, “C4-CARBOXYLIC ACID-S[…] DERIVATIVES AND METHODS OF USING” (priority 2022, published 2025).
Values joined by “and” are separate entries in the source; they are usually repeats but may differ in a detail not shown here. Equal values may be shown once.

Experiments:
5-HT1A receptor = biological target: T1, 5-HT1A receptor (Homo sapiens, UniProt P08908); assay: cAMP-Glo assay of 5-HT1A receptor modulation, CHO-K1/5-HT1A/Ga15 (+5-HT1A) vs CHO-K1/Ga15 (−5-HT1A) cells; format: cell-based; settings: +5-HT1A vs −5-HT1A CHO-K1 cells; 4 μM forskolin; increasing ligand concentration
T1 construct: host or cells: CHO-K1 (co-expressing Ga15)
T1 sequence (P08908 1-422): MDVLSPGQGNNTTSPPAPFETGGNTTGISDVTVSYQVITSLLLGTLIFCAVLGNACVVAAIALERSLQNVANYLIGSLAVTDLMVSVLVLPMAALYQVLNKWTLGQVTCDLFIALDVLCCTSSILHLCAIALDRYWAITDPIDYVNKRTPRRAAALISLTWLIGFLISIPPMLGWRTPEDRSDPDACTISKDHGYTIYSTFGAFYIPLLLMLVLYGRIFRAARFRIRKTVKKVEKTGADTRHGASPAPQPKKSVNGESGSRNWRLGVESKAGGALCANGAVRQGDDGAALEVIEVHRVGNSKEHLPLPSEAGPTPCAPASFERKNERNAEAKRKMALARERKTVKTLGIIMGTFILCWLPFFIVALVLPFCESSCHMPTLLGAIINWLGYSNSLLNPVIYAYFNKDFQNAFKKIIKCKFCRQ

[1] = biological target: T2, 5-HT2A receptor (5-HT2AR) (Mus musculus, UniProt P35363); assay: Drug-induced Head Twitch Response (HTR); format: in vivo; settings: 1 mg/kg i.p., 15-to-30-minute window post-drug, relative to vehicle
T2 construct: host or cells: C57BL/6 mice, in vivo (neuronal receptor)
T2 sequence (P35363 whole entry): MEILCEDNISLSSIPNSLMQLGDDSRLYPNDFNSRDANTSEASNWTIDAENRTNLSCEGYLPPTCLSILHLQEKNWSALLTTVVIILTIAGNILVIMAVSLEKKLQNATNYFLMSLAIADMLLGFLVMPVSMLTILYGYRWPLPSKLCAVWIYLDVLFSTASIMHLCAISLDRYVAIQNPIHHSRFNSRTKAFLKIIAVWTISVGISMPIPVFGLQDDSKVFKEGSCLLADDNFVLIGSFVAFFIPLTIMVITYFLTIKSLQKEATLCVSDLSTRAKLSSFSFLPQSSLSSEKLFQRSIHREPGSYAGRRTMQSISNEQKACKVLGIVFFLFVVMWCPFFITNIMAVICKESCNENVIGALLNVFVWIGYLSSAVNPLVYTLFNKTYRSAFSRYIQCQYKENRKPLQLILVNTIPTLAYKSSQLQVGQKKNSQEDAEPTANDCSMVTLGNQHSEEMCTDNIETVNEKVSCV

[2] = Mouse pharmacokinetic (PK) study, parent compound and psilocin metabolite in plasma; format: in vivo; settings: for bioavailability: male, C57Bl/6, mouse, plasma, po; for bioavailability / F(%): parent compound, AUC0-tlast used; for AUC0-inf/Dose / AUC0-tlast/Dose / Cmax/Dose: parent compound in plasma; for Plasma concentration of psilocin / Plasma concentration of parent compound: individual animals
Source text: Briefly, the procedure was as follows. […] 19, 2022.

[3] = 1 mg/kg i.v., each animal, 1 mg/kg
[4] = 1 mg/kg p.o., each animal, 1 mg/kg
[5] = 3 mg/kg p.o., each animal, 3 mg/kg
[6] = 10 mg/kg p.o., each animal, 10 mg/kg
[7] = mouse, prodrug 1 mg/kg i.v., 8 h, BLQ = below 0.2 ng/mL
[8] = mouse, prodrug 1 mg/kg p.o. (psilocybin: 1.56 mg/kg), 8 h, BLQ = below 0.2 ng/mL
[9] = mouse, prodrug 1 mg/kg p.o. (psilocybin: 1.56 mg/kg), 24 h, BLQ = below 0.2 ng/mL
[10] = mouse, prodrug 3 mg/kg p.o., 24 h, BLQ = below 0.2 ng/mL
[11] = mouse, prodrug 10 mg/kg p.o., 24 h, BLQ = below 0.2 ng/mL

For `COCCOCCOCC(=O)Oc1cccc2[nH]cc(CCN(C)C)c12` [C(III)], the “5-HT1A receptor modulation (reduction of forskolin-induced cAMP)” value (5-HT1A receptor) was “significant receptor modulation” and the “Head Twitch Response (HTR) incidence” value [1] was “Elevated incidences of HTR”.

For `CN(C)CCc1c[nH]c2cccc(OC(=O)c3ccc(Br)cc3)c12` [C(I)], the “5-HT1A receptor modulation (reduction of forskolin-induced cAMP)” value (5-HT1A receptor) was “mild receptor modulation at higher ligand concentrations”, the “Head Twitch Response (HTR) incidence” value [1] was “Elevated incidences of HTR” and the bioavailability ([2]; 1 mg/kg, 1 mg/kg p.o., M37 (i.v. group) considered as an outlier, mean ± SD) was 2.3 ± 1.76%. For the same compound, the bioavailability ([2]; 3 mg/kg, 3 mg/kg p.o., M37 (i.v. group) considered as an outlier, mean ± SD) was 3.18 ± 0.189%, the bioavailability ([2]; 3 mg/kg, 3 mg/kg p.o., if M37 (i.v. group) is considered as an outlier, each animal) was 3.02% and the bioavailability ([2]; 10 mg/kg, 10 mg/kg p.o., M37 (i.v. group) considered as an outlier, mean ± SD) was 3.22 ± 0.731%. The bioavailability ([2]; 10 mg/kg, 10 mg/kg p.o., if M37 (i.v. group) is considered as an outlier, each animal) was 2.71%, the Plasma concentration ([2]; parent C(I), 1 mg/kg i.v., 8 h, each animal, BLQ = below 0.5 ng/mL, 1 mg/kg) was “BLQ (2×) and No Peak” and the Plasma concentration ([2]; parent C(I), 1 mg/kg p.o., 1 h, each animal, BLQ = below 0.5 ng/mL, 1 mg/kg) was “BLQ”. For the same compound, the Plasma concentration ([2]; parent C(I), 1 mg/kg p.o., 2 h, each animal, BLQ = below 0.5 ng/mL, 1 mg/kg) was “BLQ”, the Plasma concentration ([2]; parent C(I), 1 mg/kg p.o., 4 h, each animal, BLQ = below 0.5 ng/mL, 1 mg/kg) was “BLQ” and the Plasma concentration ([2]; parent C(I), 1 mg/kg p.o., 6 h, each animal, BLQ = below 0.5 ng/mL) was “BLQ”. The Plasma concentration ([2]; parent C(I), 1 mg/kg p.o., 8 h, each animal, BLQ = below 0.5 ng/mL) was “BLQ”, the Plasma concentration ([2]; parent C(I), 1 mg/kg p.o., 24 h, each animal, BLQ = below 0.5 ng/mL, 1 mg/kg) was “No Peak and No (2×)” and the Plasma concentration ([2]; parent C(I), 3 mg/kg p.o., 1 h, each animal, BLQ = below 0.5 ng/mL, 3 mg/kg) was 1.33 ng/mL. For the same compound, the Plasma concentration ([2]; parent C(I), 3 mg/kg p.o., 6 h, each animal, BLQ = below 0.5 ng/mL, 3 mg/kg) was 0.250 ng/mL, the Plasma concentration ([2]; parent C(I), 3 mg/kg p.o., 8 h, each animal, BLQ = below 0.5 ng/mL) was “BLQ” and the Plasma concentration ([2]; parent C(I), 3 mg/kg p.o., 24 h, each animal, BLQ = below 0.5 ng/mL) was “No Peak”. For the same compound, the Plasma concentration ([2]; parent C(I), 10 mg/kg p.o., 4 h, each animal, BLQ = below 0.5 ng/mL, 10 mg/kg) was 3.01 ng/mL, the Plasma concentration ([2]; parent C(I), 10 mg/kg p.o., 24 h, each animal, BLQ = below 0.5 ng/mL) was “No” and the AUC0-inf/Dose [2, 3] was 1014 kg·ng·h/mL/mg and 64.4 kg·ng·h/mL/mg and 51.9 kg·ng·h/mL/mg. The AUC0-tlast/Dose [2, 3] was 1006 kg·ng·h/mL/mg and 63.7 kg·ng·h/mL/mg and 51.4 kg·ng·h/mL/mg, the AUC0-tlast/Dose ([2]; 1 mg/kg i.v., mean of n = 2 (without the possible outlier M37)) was 57.6 (n = 2) h*kg*ng/mL/mg and the AUC0-inf/Dose ([2]; 1 mg/kg i.v., mean ± SD) was 377 ± 552 kg·ng·h/mL/mg. The AUC0-tlast/Dose ([2]; 1 mg/kg i.v., mean ± SD) was 374 ± 548 kg·ng·h/mL/mg, the AUC0-tlast/Dose [2, 4] was 2.09 kg·ng·h/mL/mg and 0.169 kg·ng·h/mL/mg and 1.75 kg·ng·h/mL/mg and the Cmax/Dose [2, 4] was 0.816 kg·ng/mL/mg and 0.54 kg·ng/mL/mg and 1.28 kg·ng/mL/mg. The AUC0-tlast/Dose ([2]; 1 mg/kg p.o., mean ± SD) was 1.34 ± 1.02 kg·ng·h/mL/mg, the Cmax/Dose ([2]; 1 mg/kg p.o., mean ± SD) was 0.877 ± 0.376 kg·ng/mL/mg and the AUC0-tlast/Dose [2, 5] was 1.75 kg·ng·h/mL/mg and 1.82 kg·ng·h/mL/mg and 1.97 kg·ng·h/mL/mg. For the same compound, the Cmax/Dose [2, 5] was 0.650 kg·ng/mL/mg and 0.720 kg·ng/mL/mg and 0.780 kg·ng/mL/mg, the AUC0-tlast/Dose ([2]; 3 mg/kg p.o., mean ± SD) was 1.85 ± 0.110 kg·ng·h/mL/mg and the Cmax/Dose ([2]; 3 mg/kg p.o., mean ± SD) was 0.717 ± 0.0651 kg·ng/mL/mg. For the same compound, the AUC0-tlast/Dose [2, 6] was 1.58 kg·ng·h/mL/mg and 1.68 kg·ng·h/mL/mg and 2.36 kg·ng·h/mL/mg, the Cmax/Dose [2, 6] was 0.720 kg·ng/mL/mg and 0.710 kg·ng/mL/mg and 1.09 kg·ng/mL/mg and the AUC0-tlast/Dose ([2]; 10 mg/kg p.o., mean ± SD) was 1.87 ± 0.425 kg·ng·h/mL/mg. For the same compound, the Cmax/Dose ([2]; 10 mg/kg p.o., mean ± SD) was 0.840 ± 0.217 kg·ng/mL/mg, the “F(%)” value ([2]; 1 mg/kg p.o., if M37 (i.v. group) is considered as an outlier, each animal, 1 mg/kg) was 3.01% and the “F(%)” value ([2]; 10 mg/kg p.o., if M37 (i.v. group) is considered as an outlier, each animal, 10 mg/kg) was 2.90%. The Plasma concentration ([2]; psilocin, prodrug 1 mg/kg i.v., 6 h, each animal, BLQ = below 0.2 ng/mL) was “BLQ”, the Plasma concentration ([2]; psilocin, prodrug 1 mg/kg i.v., 8 h, each animal, BLQ = below 0.2 ng/mL) was “BLQ” and the Plasma concentration ([2]; psilocin, prodrug 1 mg/kg p.o., 8 h, each animal, BLQ = below 0.2 ng/mL) was “BLQ”. For the same compound, the Plasma concentration ([2]; psilocin, prodrug 1 mg/kg p.o., 24 h, each animal, BLQ = below 0.2 ng/mL) was “No Peak (2×) and BLQ”, the Plasma concentration ([2]; psilocin, prodrug 3 mg/kg p.o., 24 h, each animal, BLQ = below 0.2 ng/mL) was “No Peak” and the Plasma concentration ([2]; psilocin, prodrug 10 mg/kg p.o., 24 h, each animal, BLQ = below 0.2 ng/mL) was “BLQ”.

With `COC(=O)c1cccc(C(=O)Oc2cccc3[nH]cc(CCN(C)C)c23)c1` [C(XLIII)] the “5-HT1A receptor modulation (reduction of forskolin-induced cAMP)” value (5-HT1A receptor) was “receptor modulation at higher ligand concentrations”.

In the case of `CN(C)CCc1c[nH]c2cccc(OC(=O)c3c(F)c(F)c(F)c(F)c3F)c12` [C(VI)], the “5-HT1A receptor modulation (reduction of forskolin-induced cAMP)” value (5-HT1A receptor) is reported as “no receptor modulation at higher ligand concentrations”, the “Head Twitch Response (HTR) incidence” value [1] is reported as “Elevated incidences of HTR” and the “Detection of parent compound in plasma” value ([2]; mouse, any animals at any dose (i.v. and oral)) is reported as “not detectable in any animals at any dose”. The “Plasma concentration of psilocin” value [2, 7] was “BLQ”, the “Plasma concentration of psilocin” value [2, 8] was “BLQ” and the “Plasma concentration of psilocin” value [2, 9] was “BLQ and No Peak (2×)”. For the same compound, the “Plasma concentration of psilocin” value [2, 10] was “BLQ (2×) and No Peak” and the “Plasma concentration of psilocin” value [2, 11] was “BLQ”.

With `COc1ccc(C(=O)Oc2cccc3[nH]cc(CCN(C)C)c23)cc1` [C(V)] the “5-HT1A receptor modulation (reduction of forskolin-induced cAMP)” value (5-HT1A receptor) was “mild receptor modulation at higher ligand concentrations”, the “Head Twitch Response (HTR) incidence” value [1] was “Elevated incidences of HTR” and the “Detection of parent compound in plasma after i.v. administration” value ([2]; mouse, 1 mg/kg i.v.) was “only detectable in i.v. administered animals”. The “Plasma concentration of parent compound” value ([2]; mouse, 1 mg/kg i.v., 0.25 h, BLQ = below 0.5 ng/mL (C(V)), 1 mg/kg) was “BLQ”, the “Plasma concentration of parent compound” value ([2]; mouse, 1 mg/kg i.v., 0.5 h, BLQ = below 0.5 ng/mL (C(V)), 1 mg/kg) was “BLQ and No Peak (2×)” and the “Plasma concentration of parent compound” value ([2]; mouse, 1 mg/kg i.v., 1 h) was “No Peak”. For the same compound, the “Plasma concentration of parent compound” value ([2]; mouse, 1 mg/kg i.v., 2 h) was “No Peak”, the “Plasma concentration of parent compound” value ([2]; mouse, 1 mg/kg i.v., 4 h) was “No Peak” and the “Plasma concentration of parent compound” value ([2]; mouse, 1 mg/kg i.v., 6 h) was “No Peak”. The “Plasma concentration of parent compound” value ([2]; mouse, 1 mg/kg i.v., 8 h) was “No Peak”, the “Detection of parent compound in plasma after oral administration” value ([2]; mouse, orally administered, any dose (1, 3, 10 mg/kg)) was “not detectable” and the “Plasma concentration of psilocin” value [2, 7] was “BLQ”. The “Plasma concentration of psilocin” value [2, 8] was “BLQ”, the “Plasma concentration of psilocin” value [2, 9] was “No Peak and BLQ (2×)” and the “Plasma concentration of psilocin” value [2, 10] was “No Peak and BLQ (2×)”. The “Plasma concentration of psilocin” value [2, 11] was “BLQ (2×) and No Peak”.

With `NCCc1c[nH]c2ccc(O)cc12` [serotonin, reference compound] the “5-HT1A receptor modulation (reduction of forskolin-induced cAMP)” value (5-HT1A receptor) was “reduction in cAMP levels”.

With `CN(C)CCc1c[nH]c2cccc(OC(=O)c3cccc(C(=O)Oc4cccc5[nH]cc(CCN(C)C)c45)c3)c12` [C(VII)] the “5-HT1A receptor modulation (reduction of forskolin-induced cAMP)” value (5-HT1A receptor) was “no significant receptor modulation” and the “Head Twitch Response (HTR) incidence” value [1] was “Elevated incidences of HTR”.
